Legend:
Type in all cases: physicochemical
[1] = Solubility in non-polar hydrocarbon / organic solvents; conditions: pentane, hexane, heptane, cyclohexane, petroleum ether (b.p.=35-60° C.)
Procedure: Such solvents include pentane, hexane, heptane, cyclohexane, petroleum ether (b.p.=35-60° C.) and the like. Based on this difference in solubility behavior, a number of processes were developed which allowed the partial separation of 3′-epilutein from (3R,3′R,6′R)-lutein. These methods are a) solvent extraction, b) preferential crystallization, c) Soxhlet extraction, d) enzymatic acylation, and e) supercritical extraction with carbon dioxide. When each of these methods is applied separately to a 1:1 mixture of (3R,3′R,6′R)-lutein and 3′-epilutein, the partial separation of these carotenoids was accomplished and 3′-epilutein was obtained in 77-95% enrichment. […] The enrichment of 3′-epilutein in poorly separated mixtures may be further increased by low-temperature crystallization of (3R,3′R,6′R)-lutein from a C1-4 alcohol. Alcohols suitable for this crystallization include ethanol, methanol, propanol, 2-propanol and the like. The temperature at which the crystallization may be performed is between about −80° C. and about −40° C. […]
While (3R,3′R,6′R)-lutein and (3R,3′R)-zeaxanthin are not acylated with lipase AK or lipase PS, 3′-epilutein undergoes acylation at C-3′ to give 3′-epilutein-3′-acetate. As mentioned above, due to the difference in solubility between (3R,3′R,6′R)-lutein and 3′-epilutein, the enzymatic acylation can be readily carried out in the above-mentioned organic solvents. […]

Solubility in hexane = conditions: printed as solvent volume per mass
Procedure: As pointed out above, the solubility of 3′-epilutein in solvents such as pentane, hexane, heptane, and petroleum ether (b.p.=35-60° C.) is much higher than that of (3R,3′R,6′R)-lutein. However; large scale separation with these non-polar hydrocarbons alone would require large volumes of solvents and is not practical. For example, the low solubility of 3′-epilutein in hexane (13 ml/mg) is indicative of the large volumes of this solvent needed for the partial separation of 3′-epilutein from (3R,3′R,6′R)-lutein by virtue of their differential solubilities. Therefore, a co-solvent may be employed to increase the solubility of 3′-epilutein and at the same time reduce the volume of the hydrocarbon solvent. […] Preferred ethers include diethyl ether, TBME, diisopropyl ether and the like. Preferred non-polar hydrocarbon solvents include pentane, hexane, heptane, petroleum ether and the like. The preferred petroleum ether is that fraction which boils at 35-60° C. The ratio of non-polar hydrocarbon solvent (or petroleum ether) to ether may range from 4:1, to about 2:1, more preferably, about 3:1. One of ordinary skill in the art may determine other ratios with no more than routine experimentation.

[2] = Solubility in supercritical carbon dioxide; conditions: 5 mg scale
Procedure: The partial separation of (3R,3′R,6′R)-lutein and 3′-epilutein was also found to be quite feasible by the use of supercritical fluid extraction with carbon dioxide.
5 mg of an epimeric mixture of (3R,3′R,6′R)-lutein and 3-epilutein prepared from 97% pure (3R,3′R,6′R)-lutein (Table 2) was mixed with 0.70 g of hydromatrix (mixture of silica gel and diatomaceous earth). This was extracted with carbon dioxide in a Model Prep-Master supercritical fluid extraction apparatus (Suprex-ISCO, Inc., Lincoln, Nebr.). The conditions were as follows: flow=2 ml/min, restrictor temperature=50° C., desorb temperature=10° C., oven temperature=35° C. A two step gradient was employed for extraction of 3′-epilutein. Step one used 100 g of carbon dioxide at 300 atmosphere and step two 50 g of carbon dioxide at 375 atmosphere. Total of 2.4 mg of carotenoids was extracted with this 150 g of carbon dioxide. The extracted carotenoids were shown by HPLC to consist of 3′-epilutein (83%), (3R,3′R,6′R)-lutein (13%), anhydrolutein (2%), and Z-luteins (2%). Approximately 2.5 mg of carotenoids remained in the hydromatrix; these were: (3R,3′R,6′R)-lutein (77%), 3′-epilutein (13%), and (3R,3′R)-zeaxanthin (10%).

| solubility in hexane (Solubility in hexane) | SMILES | solubility in non-polar solvents (in words) [1] | solubility in supercritical carbon dioxide (in words) [2] |
| --- | --- | --- | --- |
| – | CC(=O)OC1C=C(C)C(C=CC(C)=CC=CC(C)=CC=CC=C(C)C=CC=C(C)C=CC2=C(C)CC(O)CC2(C)C)C(C)(C)C1 (stereo not shown) [3′-epilutein-3′-acetate] | highly soluble | – |
| 13 mL/mg | CC1=C[C@@H](O)CC(C)(C)[C@H]1/C=C/C(C)=C/C=C/C(C)=C/C=C/C=C(C)/C=C/C=C(C)/C=C/C1=C(C)C[C@@H](O)CC1(C)C [3′-epilutein, (3R,3′S,6′R)-lutein] | slightly more soluble than (3R,3′R,6′R)-lutein | by far greater than that of (3R,3′R,6′R)-lutein and (3R,3′R)-zeaxanthin |

Reference: patent US6818798B1, “Process for making a (3R,3′R)-zeaxanthin precursor” (University of Maryland, College Park, priority 2000, dated 2004)
